Here are results for 25 compounds from patent US10596172B2 (Celgene CAR LLC, priority 2008, dated 2020).

This test concerns B cell lymphoma cell lines. Description: B cell lymphoma proliferation assay. It is filed as cell-based.
[1] abbreviates: DHL4 B cell lymphoma cell line, read-out: EC50 (μM) DHL4.
Where [2] appears, read: Homo sapiens, DOHH-2, DOHH2 B cell lymphoma cell line, read-out: EC50 (μM) DOHH2.
[3] abbreviates: Homo sapiens, WSUDLCL2, WSU-DLCL2 B cell lymphoma cell line, read-out: EC50 (μM) WSU-DLCL2.

SMILES strings stand for the structures. Read-outs that look alike come from different tables or passages of the source. Bounds are passed on as bounds.

What is called EC50 is the concentration needed to bring the measured effect to its halfway point. With `C=CC(=O)Nc1cccc(Nc2nc(Nc3ccc4[nH]ncc4c3)ncc2F)c1` [Compound I-156], the concentration giving a half-maximal response (EC50) runs as follows: under setting [1], 1 to 10 µM; under setting [2], 0.1 to 1 µM; under setting [3], 1 to 10 µM.

Consider `C=CC(=O)Nc1cccc(Nc2nc(Nc3ccccc3)ncc2C#N)c1` [Compound I-157, N-(3-(5-cyano-2-(phenylamino)pyrimidin-4-ylamino)phenyl)acrylamide], for which the EC50 is, setting by setting: under setting [1], 1 to 10 µM; under setting [2], 1 to 10 µM; under setting [3], 1 to 10 µM.

As to `C=CC(=O)Nc1cccc(Nc2nc(Nc3cccc(OC)c3)ncc2OC)c1` [Compound I-158, N-(3-(5-methoxy-2-(3-methoxyphenylamino)pyrimidin-4-ylamino)phenyl)acrylamide], the EC50 was in the range of 1 to 10 µM under setting [1], 1 to 10 µM under setting [2] and 1 to 10 µM under setting [3].

On to `C=CC(=O)Nc1cccc(Oc2nc(Nc3ccc(OC)nc3)ncc2C(=O)Nc2ccccc2)c1` [Compound I-159, 4-(3-acrylamidophenoxy)-2-(6-methoxypyridin-3-ylamino)-pyrimidine-5-carboxylic acid phenylamide], for which the EC50 under setting [2] is 1 to 10 µM.

For the compound `C=CC(=O)Nc1cccc(Nc2nc(Nc3cccc(S(N)(=O)=O)c3)ncc2F)c1` [Compound I-160, N-(3-(5-fluoro-2-(3-sulfamoylphenylamino)pyrimidin-4-ylamino)phenyl)acrylamide], the EC50 reads like this: under setting [1], 1 to 10 µM; under setting [2], 1 to 10 µM; under setting [3], 1 to 10 µM.

Turning to `C=CC(=O)N1Cc2ccc(Nc3nc(Nc4ccc(OC)nc4)ncc3F)cc2C1` [Compound I-165, 1-(5-(5-fluoro-2-(6-methoxypyridin-3-ylamino)pyrimidin-4-ylamino)isoindolin-2-yl)prop-2-en-1-one], the half-maximal effective concentration (EC50) reads like this: under setting [1], 1 to 10 µM; under setting [2], 1 to 10 µM; under setting [3], 1 to 10 µM.

Turning to `C=CC(=O)N1CCc2ccc(Nc3nc(Nc4ccc(OC)nc4)ncc3F)cc21` [Compound I-166, 1-(6-(5-fluoro-2-(6-methoxypyridin-3-ylamino)pyrimidin-4-ylamino)indolin-1-yl)prop-2-en-1-one], the EC50 fell in the range of 1 to 10 µM under setting [1], 1 to 10 µM under setting [2] and 1 to 10 µM under setting [3].

For `C=CC(=O)Nc1cccc(Nc2nc(Nc3ccc(OC)nc3)ncc2C2CC2)c1` [Compound I-167, N-(3-(5-cyclopropyl-2-(6-methoxypyridin-3-ylamino)pyrimidin-4-ylamino)phenyl)acrylamide], the EC50 under setting [2] fell in the range of 1 to 10 µM.

For `C=CC(=O)N1CCOc2ccc(Nc3nc(Nc4ccc(N5CCOCC5)nc4)ncc3C(C)=O)cc21` [Compound I-168, 1-{6-[5-Acetyl-2-(6-morpholin-4-yl-pyridin-3-ylamino)-pyrimidin-4-ylamino]-2,3-dihydro-benzo[1,4]oxazin-4-yl}-propenone], the EC50 under setting [2] was in the range of 1 to 10 µM.

With `C=CC(=O)N1CCOc2ccc(Nc3nc(Nc4ccc(N5CCOCC5)cc4)ncc3C(C)=O)cc21` [Compound I-169, 1-{6-[5-Acetyl-2-(4-morpholin-4-yl-phenylamino)-pyrimidin-4-ylamino]-2,3-dihydro-benzo[1,4]oxazin-4-yl}-propenone], the EC50 under setting [2] fell in the range of 1 to 10 µM.

For `C=CC(=O)Nc1cccc(N(C(=O)C=C)c2nc(Nc3ccc(OC)nc3)ncc2C#N)c1` [Compound I-171, N-(3-acrylamidophenyl)-N-(5-cyano-2-(6-methoxypyridin-3-ylamino)pyrimidin-4-yl)acrylamide], the EC50 under setting [2] was in the range of 1 to 10 µM.

Take `C=CC(=O)Nc1cccc(Nc2nc(Nc3ccc(OC(C)C)nc3)ncc2F)c1` [Compound I-172, N-(3-(5-fluoro-2-(6-isopropoxypyridin-3-ylamino)pyrimidin-4-ylamino)phenyl)acrylamide]: the EC50 under setting [2] was 1 to 10 µM.

As for `C=CC(=O)Nc1cccc(Nc2nc(Nc3ccc(OC)nc3)ncc2C#N)c1` [Compound I-173, N-(3-(5-cyano-2-(6-methoxypyridin-3-ylamino)pyrimidin-4-ylamino)phenyl)acrylamide], the EC50 under setting [2] lay in the range of 1 to 10 µM.

As to `C=CC(=O)Nc1cccc(Nc2nc(Nc3ccc4c(c3)NCCO4)ncc2F)c1` [Compound I-174], the EC50 under setting [2] was in the range of 1 to 10 µM.

In the case of `C=CC(=O)Nc1cccc(Oc2nc(Nc3ccc(OC)nc3)ncc2C)c1` [Compound I-186, N-(3-(2-(6-methoxypyridin-3-ylamino)-5-methylpyrimidin-4-yloxy)phenyl)acrylamide], the EC50 is 1 to 10 µM under setting [1] and 1 to 10 µM under setting [2].

As to `C=CC(=O)Nc1cccc(Oc2nc(Nc3ccc(OC)nc3)ncc2C(C)=O)c1` [Compound I-188, N-{3-[5-Acetyl-2-(6-methoxy-pyridin-3-ylamino)-pyrimidin-4-yloxy]-phenyl}-acrylamide], the concentration giving a half-maximal response (EC50) under setting [2] is 1 to 10 µM.

As for `C=CC(=O)Nc1cccc(Nc2nc(Nc3ccc(OC)nc3)ncc2C(C)=O)c1` [Compound I-189, N-{3-[5-Acetyl-2-(6-methoxy-pyridin-3-ylamino)-pyrimidin-4-ylamino]-phenyl}-acrylamide], the EC50 by setting is: under setting [1], 1 to 10 µM; under setting [2], more than 10 µM; under setting [3], more than 10 µM.

Take `C=CC(=O)Nc1cccc(Nc2nc(Nc3ccc(OC)nc3)ncc2OC)c1` [Compound I-192, N-(3-(5-methoxy-2-(6-methoxypyridin-3-ylamino)pyrimidin-4-ylamino)phenyl)acrylamide]: the EC50 reads like this: under setting [2], 1 to 10 µM; under setting [3], more than 10 µM.

With `C=CC(=O)N1CCOc2ccc(Nc3nc(Nc4ccc(OC)nc4)ncc3F)cc21` [Compound I-194, 1-(6-(5-fluoro-2-(6-methoxypyridin-3-ylamino)pyrimidin-4-ylamino)-2H-benzo[b][1,4]oxazin-4(3H)-yl)prop-2-en-1-one], the half-maximal effective concentration (EC50) under setting [1] is 1 to 10 µM, the EC50 under setting [2] lay in the range of 1 to 10 µM and the EC50 under setting [3] is 1 to 10 µM.

In the case of `C=CC(=O)Nc1cccc(Nc2nc(Nc3cccc(OCCCn4ccnc4)c3)ncc2F)c1` [Compound I-204, N-(3-(2-(3-(3-(1H-imidazol-1-yl)propoxy)phenylamino)-5-fluoropyrimidin-4-ylamino)phenyl)acrylamide], the EC50 by setting is: under setting [2], 1 to 10 µM; under setting [3], 1 to 10 µM.

With `C=CC(=O)Nc1cccc(Nc2nc(Nc3cccc(OCCCN4CCOCC4)c3)ncc2F)c1` [Compound I-208, N-(3-(5-fluoro-2-(3-(3-morpholinopropoxy)phenylamino)pyrimidin-4-ylamino)phenyl)acrylamide], the EC50 lay in the range of 1 to 10 µM under setting [2] and 1 to 10 µM under setting [3].

On to `C=CC(=O)Nc1cccc(Nc2nc(Nc3ccc(OC)nc3)ncc2C(N)=O)c1` [Compound I-209, 4-(3-acrylamidophenylamino)-2-(6-methoxypyridin-3-ylamino)pyrimidine-5-carboxamide], for which the EC50 under setting [2] is more than 10 µM and the concentration for a half-maximal effect (EC50) under setting [3] was in the range of 1 to 10 µM.

Consider `C=CC(=O)Nc1cccc(Nc2nc(Nc3cccc(OC)c3)ncc2C(N)=O)c1` [Compound I-210, 4-(3-acrylamidophenylamino)-2-(3-methoxyphenylamino)pyrimidine-5-carboxamide], for which the 50% effective concentration (EC50) under setting [2] lay in the range of 1 to 10 µM and the EC50 under setting [3] lay within 1 to 10 µM.

Consider `C=CC(=O)Nc1cccc(Oc2nc(Nc3ccc(OC)nc3)ncc2F)c1` [Compound I-217], for which the EC50 under setting [2] was more than 10 µM and the EC50 under setting [3] is more than 10 µM.

For the compound `C=CC(=O)Nc1cccc(Nc2nc(Nc3cccc(OCCN(CC)CC)c3)ncc2F)c1` [Compound I-298], the concentration for a half-maximal effect (EC50) under setting [3] is 1 to 10 µM.
